Measured values as given in US8906848B2, “Aureobasidin derivatives and methods of synthesis” (priority 2011, dated 2014).
Converted amounts (≈) assume the structure as drawn. Read-outs that look alike come from different tables or passages of the source.

Tests used:
[1] = test system: Aspergillus candidus 450 (ATCC13686); test: MIC, antifungal spectrum (Table 3); assay type: cell-based
Experimental: (§1) The activities of several exemplary compounds of the present invention were assayed according to the CLSI standard M38-A2 titled “Reference Method for Broth Dilution Antifungal Susceptibility Testing of Filamentous Fungi”. However, the RPMI-1640 broth is substituted for a YPD medium formulated according to the following steps: […]
(§2) 1. Dissolve 10 g of BactoYeast extract in 500 ml water
(§3) 2. Dissolve 20 g of BactoPeptone in the above solution
(§4) 3. Dissolve 20 g Dextrose in the above solution* *Ordinary table sugar (sucrose) substituted for dextrose routinely.
(§5) 4. q.s. to 1000 ml with water

[2] = test system: Aspergillus clavatus 638 (ATCC10058); test: MIC, antifungal spectrum (Table 3); assay type: cell-based
Experimental: as §1, §2, §3, §4, §5

[3] = test system: Aspergillus flavus 122 (ATCC22546); test: MIC, antifungal spectrum (Table 3); assay type: cell-based
Experimental: as §1, §2, §3, §4, §5

[4] = test system: Aspergillus flavus 4787 (ATCC204304); test: MIC, antifungal spectrum (Table 3); assay type: cell-based
Experimental: as §1, §2, §3, §4, §5

[5] = test system: Aspergillus flavus 626 (ATCC64025); test: MIC, antifungal spectrum (Table 3); assay type: cell-based
Experimental: as §1, §2, §3, §4, §5

[6] = test system: Aspergillus fumigatus 5280 (ATCC MYA-3626); test: MIC, antifungal spectrum (Table 3); assay type: cell-based
Experimental: as §1, §2, §3, §4, §5

[7] = test system: Aspergillus fumigatus 891 (ATCC204305); test: MIC, antifungal spectrum (Table 3); assay type: cell-based
Experimental: as §1, §2, §3, §4, §5

[8] = test system: Aspergillus niger 624 (ATCC16888); test: MIC, antifungal spectrum (Table 3); assay type: cell-based
Experimental: as §1, §2, §3, §4, §5

[9] = test system: Aspergillus ochraceus 625 (ATCC96919); test: MIC, antifungal spectrum (Table 3); assay type: cell-based
Experimental: as §1, §2, §3, §4, §5

[10] = test system: Candida albicans 104 (ATCC90028); test: MIC, antifungal spectrum (Table 3); assay type: cell-based
Experimental: as §1, §2, §3, §4, §5

[11] = test system: Candida albicans 2000 (ATCC10231); test: MIC, antifungal spectrum (Table 3); assay type: cell-based
Experimental: as §1, §2, §3, §4, §5

[12] = test system: Candida albicans 2486 (ATCC204276); test: MIC, antifungal spectrum (Table 3); assay type: cell-based
Experimental: as §1, §2, §3, §4, §5

[13] = test system: Candida albicans 2487 (ATCC MYA-2732); test: MIC, antifungal spectrum (Table 3); assay type: cell-based
Experimental: as §1, §2, §3, §4, §5

[14] = test system: Candida albicans 4782 (ATCC24433); test: MIC, antifungal spectrum (Table 3); assay type: cell-based
Experimental: as §1, §2, §3, §4, §5

[15] = test system: Candida albicans 633 (ATCC90029); test: MIC, antifungal spectrum (Table 3); assay type: cell-based
Experimental: as §1, §2, §3, §4, §5

[16] = test system: Candida glabrata 635 (ATCC90030); test: MIC, antifungal spectrum (Table 3); assay type: cell-based; details: Nakaseomyces glabratus
Experimental: as §1, §2, §3, §4, §5

[17] = test system: Candida guilliermondii 628 (ATCC34134); test: MIC, antifungal spectrum (Table 3); assay type: cell-based; details: Meyerozyma guilliermondii
Experimental: as §1, §2, §3, §4, §5

[18] = test system: Candida krusei 629 (ATCC14243); test: MIC, antifungal spectrum (Table 3); assay type: cell-based; details: Pichia kudriavzevii
Experimental: as §1, §2, §3, §4, §5

[19] = test system: Candida lusitaniae 631 (ATCC66035); test: MIC, antifungal spectrum (Table 3); assay type: cell-based; details: Clavispora lusitaniae
Experimental: as §1, §2, §3, §4, §5

[20] = test system: Candida parapsilosis 0630 (ATCC90018); test: MIC, antifungal spectrum (Table 3); assay type: cell-based; details: Lodderomyces parapsilosis
Experimental: as §1, §2, §3, §4, §5

[21] = test system: Candida parapsilosis 2323 (ATCC22019); test: MIC, antifungal spectrum (Table 3); assay type: cell-based; details: Lodderomyces parapsilosis
Experimental: as §1, §2, §3, §4, §5

[22] = test system: Candida tropicalis 4783 (ATCC750); test: MIC, antifungal spectrum (Table 3); assay type: cell-based
Experimental: as §1, §2, §3, §4, §5

[23] = test system: Candida tropicalis 636 (ATCC90874); test: MIC, antifungal spectrum (Table 3); assay type: cell-based
Experimental: as §1, §2, §3, §4, §5

[24] = test system: Emericella nidulans 637 (ATCC96921); test: MIC, antifungal spectrum (Table 3); assay type: cell-based; details: Aspergillus nidulans
Experimental: as §1, §2, §3, §4, §5

[25] = test system: Fusarium oxysporum 0893 (ATCC48112); test: MIC, antifungal spectrum (Table 3); assay type: cell-based; details: at 96 hr, read-out: MIC
Experimental: as §1, §2, §3, §4, §5

[26] = test system: Issatchenkia orientalis 2322 (ATCC6258); test: MIC, antifungal spectrum (Table 3); assay type: cell-based; details: Pichia kudriavzevii
Experimental: as §1, §2, §3, §4, §5

[27] = test system: Rhizopus oryzae 0890 (ATCC11886); test: MIC, antifungal spectrum (Table 3); assay type: cell-based; details: Rhizopus arrhizus
Experimental: as §1, §2, §3, §4, §5

[28] = test system: Saccharomyces cerevisiae 0639 (ATCC7754); test: MIC, antifungal spectrum (Table 3); assay type: cell-based
Experimental: as §1, §2, §3, §4, §5

[29] = test system: Sporothrix schenkii 892 (ATCC14284); test: MIC, antifungal spectrum (Table 3); assay type: cell-based; details: at 96 hrs, read-out: MIC
Experimental: as §1, §2, §3, §4, §5

[30] = test system: Trychophyton mentagrophytes 5278 (ATCC MYA-4439); test: MIC, antifungal spectrum (Table 3); assay type: cell-based; details: at 96 hrs, read-out: MIC
Experimental: as §1, §2, §3, §4, §5

[31] = test system: Trychophyton mentagrophytes 640 (ATCC 28185); test: MIC, antifungal spectrum (Table 3); assay type: cell-based
Experimental: as §1, §2, §3, §4, §5

[32] = test system: Trychophyton rubrum 5279 (ATCC MYA-4438); test: MIC, antifungal spectrum (Table 3); assay type: cell-based; details: at 72 hrs, read-out: MIC
Experimental: as §1, §2, §3, §4, §5

[33] = test system: Aspergillus fumigatus 5280 (ATCC MYA-3626); details: at 48 hrs; cited from earlier work
[34] = test system: Candida parapsilosis 2323 (ATCC22019); details: cited from earlier work

Compound: C[C@@H]1[C@H](O)[C@@H](C)/C=C/C=C/C=C/C=C/C=C/C=C/C=C/[C@H](O[C@@H]2O[C@H](C)[C@@H](O)[C@H](N)[C@@H]2O)C[C@@H]2O[C@](O)(C[C@@H](O)C[C@@H](O)[C@H](O)CC[C@@H](O)C[C@@H](O)CC(=O)O[C@H]1C)C[C@H](O)[C@H]2C(=O)O [Amphotericin, Amphotericin B]
- MIC ([1]; 48 hr reading): 0.03 µg/mL (≈ 0.0325 µM)
- MIC ([1]; 72 hr reading): 0.06 µg/mL (≈ 0.0649 µM)
- MIC ([2]; 48 hr reading): ≤ 0.004 µg/mL
- MIC ([2]; 72 hr reading): 0.015 µg/mL (≈ 0.0162 µM)
- MIC ([3]; 48 hr reading): 0.25 µg/mL (≈ 0.271 µM)
- MIC ([3]; 72 hr reading): 0.25 µg/mL (≈ 0.271 µM)
- MIC ([4]; 48 hr reading): 0.25 µg/mL (≈ 0.271 µM)
- MIC ([4]; 72 hr reading): 0.25 µg/mL (≈ 0.271 µM)
- MIC ([5]; 48 hr reading): 0.5 µg/mL (≈ 0.541 µM)
- MIC ([5]; 72 hr reading): 0.5 µg/mL (≈ 0.541 µM)
- MIC ([6]; 48 h, Aspergillus fumigatus 5280 (ATCC MYA-3626) no Tween, 48 hr reading): 1 µg/mL (≈ 1.08 µM)
- MIC ([6]; 48 h, Aspergillus fumigatus 5280 (ATCC MYA-3626), 48 hr reading): 0.25 µg/mL (≈ 0.271 µM)
- MIC ([6]; 72 h, Aspergillus fumigatus 5280 (ATCC MYA-3626) no Tween, 72 hr reading): 2 µg/mL (≈ 2.16 µM)
- MIC ([6]; 72 h, Aspergillus fumigatus 5280 (ATCC MYA-3626), 72 hr reading): 0.5 µg/mL (≈ 0.541 µM)
- MIC ([7]; 48 hr reading): 0.25 µg/mL (≈ 0.271 µM)
- MIC ([7]; 72 hr reading): 1 µg/mL (≈ 1.08 µM)
- MIC ([8]; 48 hr reading): 0.03 µg/mL (≈ 0.0325 µM)
- MIC ([8]; 72 hr reading): 0.125 µg/mL (≈ 0.135 µM)
- MIC ([9]; 48 hr reading): 0.25 µg/mL (≈ 0.271 µM)
- MIC ([9]; 72 hr reading): 0.5 µg/mL (≈ 0.541 µM)
- MIC ([10]; 48 hr reading): 0.3 µg/mL (≈ 0.325 µM)
- MIC ([10]; 72 hr reading): 0.6 µg/mL (≈ 0.649 µM)
- MIC ([11]; 48 hr reading): 0.3 µg/mL (≈ 0.325 µM)
- MIC ([11]; 72 hr reading): 0.6 µg/mL (≈ 0.649 µM)
- MIC ([12]; 48 hr reading): 0.06 µg/mL (≈ 0.0649 µM)
- MIC ([12]; 72 hr reading): 0.06 µg/mL (≈ 0.0649 µM)
- MIC ([13]; 48 hr reading): 0.06 µg/mL (≈ 0.0649 µM)
- MIC ([13]; 72 hr reading): 0.06 µg/mL (≈ 0.0649 µM)
- MIC ([14]; 48 hr reading): 0.3 µg/mL (≈ 0.325 µM)
- MIC ([14]; 72 hr reading): 0.6 µg/mL (≈ 0.649 µM)
- MIC ([15]; 48 hr reading): 0.3 µg/mL (≈ 0.325 µM)
- MIC ([15]; 72 hr reading): 0.6 µg/mL (≈ 0.649 µM)
- MIC ([16]; 48 hr reading): 0.03 µg/mL (≈ 0.0325 µM)
- MIC ([16]; 72 hr reading): 0.125 µg/mL (≈ 0.135 µM)
- MIC ([17]; 48 hr reading): 0.008 µg/mL (≈ 0.00866 µM)
- MIC ([17]; 72 hr reading): 0.015 µg/mL (≈ 0.0162 µM)
- MIC ([18]; 48 hr reading): 0.125 µg/mL (≈ 0.135 µM)
- MIC ([18]; 72 hr reading): 0.125 µg/mL (≈ 0.135 µM)
- MIC ([19]; 48 hr reading): 0.015 µg/mL (≈ 0.0162 µM)
- MIC ([19]; 72 hr reading): 0.03 µg/mL (≈ 0.0325 µM)
- MIC ([20]; 48 hr reading): 0.06 µg/mL (≈ 0.0649 µM)
- MIC ([20]; 72 hr reading): 0.125 µg/mL (≈ 0.135 µM)
- MIC ([21]; ATCC22019, 48 h, Candida parapsilosis 2323 (ATCC22019) no Tween, 48 hr reading): 0.25 µg/mL (≈ 0.271 µM)
- MIC ([21]; ATCC22019, 48 h, Candida parapsilosis 2323 (ATCC22019), 48 hr reading): 0.125 µg/mL (≈ 0.135 µM)
- MIC ([21]; ATCC22019, 72 h, Candida parapsilosis 2323 (ATCC22019) no Tween, 72 hr reading): 1 µg/mL (≈ 1.08 µM)
- MIC ([21]; ATCC22019, 72 h, Candida parapsilosis 2323 (ATCC22019), 72 hr reading): 0.125 µg/mL (≈ 0.135 µM)
- MIC ([22]; 48 hr reading): 0.06 µg/mL (≈ 0.0649 µM)
- MIC ([22]; 72 hr reading): 0.125 µg/mL (≈ 0.135 µM)
- MIC ([23]; 48 hr reading): 0.06 µg/mL (≈ 0.0649 µM)
- MIC ([23]; 72 hr reading): 0.125 µg/mL (≈ 0.135 µM)
- MIC ([24]; 48 hr reading): 1 µg/mL (≈ 1.08 µM)
- MIC ([24]; 72 hr reading): 2 µg/mL (≈ 2.16 µM)
- MIC [25]: 1 µg/mL (≈ 1.08 µM)
- MIC ([26]; 48 hr reading): 0.125 µg/mL (≈ 0.135 µM)
- MIC ([26]; 72 hr reading): 0.125 µg/mL (≈ 0.135 µM)
- MIC ([27]; 48 hr reading): 0.03 µg/mL (≈ 0.0325 µM)
- MIC ([27]; 72 hr reading): 0.03 µg/mL (≈ 0.0325 µM)
- MIC ([28]; 48 hr reading): 0.06 µg/mL (≈ 0.0649 µM)
- MIC ([28]; 72 hr reading): 0.06 µg/mL (≈ 0.0649 µM)
- MIC [29]: 0.5 µg/mL (≈ 0.541 µM)
- MIC [30]: 0.06 µg/mL (≈ 0.0649 µM)
- MIC ([31]; 48 hr reading): 0.06 µg/mL (≈ 0.0649 µM)
- MIC ([31]; 72 hr reading): 0.25 µg/mL (≈ 0.271 µM)
- MIC [32]: 0.03 µg/mL (≈ 0.0325 µM)
- Amphotericin B CLSI QC Range for A. Fumigatus ATCC MYA-3626 [33]: 0.5-4 at 48 hrs μg/ml
- Amphotericin B CLSI QC Range for C. parapsilosis ([34]; 24 hrs): 0.25-2 (24 hrs) μg/ml
- Amphotericin B CLSI QC Range for C. parapsilosis ([34]; 48 hrs): 0.5-4 (48 hrs) μg/ml
